This assay concerns BDF1 mice, intracerebral L1210 leukemia, survival T/C. Briefly: NCI In Vivo Anticancer Drug Screen. Data for tumor model L1210 Leukemia (intracerebral) in B6D2F1 (BDF1) mice. The conditions noted are these: endpoint: mean survival time, higher = longer survival. Put shortly: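 Survival measured in treated and vehicle-control tumour-bearing mice; value = T/C.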

Structures are written as SMILES. Several values for one entry are separate records, joined by “and”; a condition that tells them apart may be missing. Equal entries are not always repeated. Toxic doses and inconclusive results are not listed.

As for `O=C1C(Cl)=C(N2CC2)C(=O)C(Cl)=C1N1CC1`, the T/C runs as follows: (dose: 0.62 mg/kg/injection, schedule: Q01DX009 (ip), vehicle: Klucel (hydroxypropylcellulose) (HPC)) 98 % of control; (dose: 0.62 mg/kg/injection, schedule: Q01DX009 (ip), vehicle: saline) 96 % of control; (dose: 1.25 mg/kg/injection, schedule: Q01DX009 (ip), vehicle: Klucel (hydroxypropylcellulose) (HPC)) 98 % of control; (dose: 1.25 mg/kg/injection, schedule: Q01DX009 (ip), vehicle: saline) 120 % of control and 96 % of control; (dose: 2.5 mg/kg/injection, schedule: Q01DX009 (ip), vehicle: Klucel (hydroxypropylcellulose) (HPC)) 98 % of control; (dose: 5.0 mg/kg/injection, schedule: Q01DX009 (ip), vehicle: Klucel (hydroxypropylcellulose) (HPC)) 96 % of control. Further, the T/C is 96 % of control (dose: 10.0 mg/kg/injection, schedule: Q01DX009 (ip), vehicle: Klucel (hydroxypropylcellulose) (HPC)); 90 % of control (dose: 20.0 mg/kg/injection, schedule: Q01DX009 (ip), vehicle: Klucel (hydroxypropylcellulose) (HPC)); 87 % of control (dose: 20.0 mg/kg/injection, schedule: Q01DX009 (ip), vehicle: saline).
Turning to `O=NN(CCCl)C(=O)NC1Cc2ccccc2C1`, the T/C reads like this: (dose: 55.0 mg/kg/injection, schedule: Q01DX001 (ip), vehicle: other) 116 % of control; (dose: 84.0 mg/kg/injection, schedule: Q01DX001 (ip), vehicle: other) 123 % of control; (dose: 188.0 mg/kg/injection, schedule: Q01DX001 (ip), vehicle: other) 94 % of control.
In the case of `O=NN(CCCl)C(=O)NC1CCC(=O)NC1=O` (stereo unspecified), the T/C was 106 % of control and 116 % of control (dose: 2.1 mg/kg/injection, schedule: Q01DX001 (ip), vehicle: other); 156 % of control and 226 % of control (dose: 4.0 mg/kg/injection, schedule: Q01DX001 (ip), vehicle: other); 159 % of control and 161 % of control and 183 % of control (dose: 8.0 mg/kg/injection, schedule: Q01DX001 (ip), vehicle: other); 352 % of control (dose: 8.0 mg/kg/injection, schedule: Q01DX001 (ip), vehicle: saline with Tween-80); 251 % of control (dose: 11.0 mg/kg/injection, schedule: Q01DX001 (ip), vehicle: other); 298 % of control and 327 % of control (dose: 12.0 mg/kg/injection, schedule: Q01DX001 (ip), vehicle: other). Moreover, the T/C is 542 % of control (dose: 13.0 mg/kg/injection, schedule: Q01DX001 (ip), vehicle: saline with Tween-80); 274 % of control and 328 % of control (dose: 16.0 mg/kg/injection, schedule: Q01DX001 (ip), vehicle: other); 389 % of control and 498 % of control (dose: 17.0 mg/kg/injection, schedule: Q01DX001 (ip), vehicle: other); 625 % of control (dose: 20.0 mg/kg/injection, schedule: Q01DX001 (ip), vehicle: saline with Tween-80); 251 % of control (dose: 22.0 mg/kg/injection, schedule: Q01DX001 (ip), vehicle: other); 238 % of control and 335 % of control (dose: 24.0 mg/kg/injection, schedule: Q01DX001 (ip), vehicle: other). Besides, the T/C is, setting by setting: (dose: 30.0 mg/kg/injection, schedule: Q01DX001 (ip), vehicle: saline with Tween-80) 107 % of control; (dose: 33.0 mg/kg/injection, schedule: Q01DX001 (ip), vehicle: other) 297 % of control; (dose: 35.0 mg/kg/injection, schedule: Q01DX001 (ip), vehicle: other) 287 % of control and 353 % of control; (dose: 36.0 mg/kg/injection, schedule: Q01DX001 (ip), vehicle: other) 205 % of control; (dose: 44.0 mg/kg/injection, schedule: Q01DX001 (ip), vehicle: other) 275 % of control.
Take `CCN(CC)CCNc1ccc(CO)c2sc3ccccc3c(=O)c12`: the T/C (dose: 1.0 mg/kg/injection, schedule: Q01DX005 (ip), vehicle: saline) is 97 % of control; the T/C (dose: 2.0 mg/kg/injection, schedule: Q01DX005 (ip), vehicle: saline) is 96 % of control; the T/C (dose: 4.0 mg/kg/injection, schedule: Q01DX005 (ip), vehicle: saline) is 100 % of control; the T/C (dose: 8.0 mg/kg/injection, schedule: Q01DX005 (ip), vehicle: saline) is 98 % of control; the T/C (dose: 16.0 mg/kg/injection, schedule: Q01DX005 (ip), vehicle: saline) was 100 % of control; the T/C (dose: 32.0 mg/kg/injection, schedule: Q01DX005 (ip), vehicle: saline) is 107 % of control. For the same molecule, the T/C (dose: 64.0 mg/kg/injection, schedule: Q01DX005 (ip), vehicle: saline) is 123 % of control.
`CC1(NC(=O)N(CCCl)N=O)CCCC1`: the T/C is 91 % of control (dose: 12.5 mg/kg/injection, schedule: Q01DX001 (ip), vehicle: carboxymethylcellulose (CMC)); 102 % of control (dose: 25.0 mg/kg/injection, schedule: Q01DX001 (ip), vehicle: carboxymethylcellulose (CMC)); 100 % of control (dose: 50.0 mg/kg/injection, schedule: Q01DX001 (ip), vehicle: carboxymethylcellulose (CMC)); 100 % of control (dose: 100.0 mg/kg/injection, schedule: Q01DX001 (ip), vehicle: carboxymethylcellulose (CMC)); 347 % of control (dose: 125.0 mg/kg/injection, schedule: Q01DX001 (ip), vehicle: carboxymethylcellulose (CMC)); 285 % of control (dose: 187.0 mg/kg/injection, schedule: Q01DX001 (ip), vehicle: carboxymethylcellulose (CMC)). In addition, the T/C (dose: 250.0 mg/kg/injection, schedule: Q01DX001 (ip), vehicle: carboxymethylcellulose (CMC)) was 276 % of control.
Take `Nc1ncnc2c1ccn2C1OC(CO)C(O)C1O` (stereo unspecified): the T/C is, setting by setting: (dose: 1.2 mg/kg/injection, schedule: Q01DX001 (ip), vehicle: carboxymethylcellulose (CMC)) 96 % of control; (dose: 1.9 mg/kg/injection, schedule: Q01DX001 (ip), vehicle: carboxymethylcellulose (CMC)) 97 % of control; (dose: 2.9 mg/kg/injection, schedule: Q01DX001 (ip), vehicle: carboxymethylcellulose (CMC)) 100 % of control.
Consider `CN(N=O)C(=O)N[C@@H](C=O)[C@@H](O)[C@H](O)[C@H](O)CO`, for which the T/C was 105 % of control (dose: 15.0 mg/kg/injection, schedule: Q01DX009 (ip), vehicle: saline); 98 % of control (dose: 22.0 mg/kg/injection, schedule: Q01DX009 (ip), vehicle: other); 105 % of control (dose: 30.0 mg/kg/injection, schedule: Q01DX005 (ip), vehicle: saline); 108 % of control (dose: 30.0 mg/kg/injection, schedule: Q01DX009 (ip), vehicle: saline); 100 % of control (dose: 33.0 mg/kg/injection, schedule: Q01DX009 (ip), vehicle: other); 95 % of control (dose: 50.0 mg/kg/injection, schedule: Q01DX009 (ip), vehicle: other). The T/C reads like this: (dose: 60.0 mg/kg/injection, schedule: Q01DX005 (ip), vehicle: saline) 101 % of control; (dose: 60.0 mg/kg/injection, schedule: Q01DX009 (ip), vehicle: saline) 109 % of control; (dose: 75.0 mg/kg/injection, schedule: Q01DX009 (ip), vehicle: other) 94 % of control; (dose: 113.0 mg/kg/injection, schedule: Q01DX009 (ip), vehicle: other) 93 % of control; (dose: 120.0 mg/kg/injection, schedule: Q01DX005 (ip), vehicle: saline) 107 % of control; (dose: 120.0 mg/kg/injection, schedule: Q01DX009 (ip), vehicle: saline) 113 % of control. In addition, the T/C (dose: 240.0 mg/kg/injection, schedule: Q01DX005 (ip), vehicle: saline) is 105 % of control.
Turning to `CN(N=O)C(=O)Nc1ccccc1`, the T/C reads like this: (dose: 150.0 mg/kg/injection, schedule: Q01DX001 (ip), vehicle: carboxymethylcellulose (CMC)) 103 % of control; (dose: 300.0 mg/kg/injection, schedule: Q01DX001 (ip), vehicle: carboxymethylcellulose (CMC)) 98 % of control.
Take `O=P(NC12CC3CC(CC(C3)C1)C2)(N1CC1)N1CC1`: the T/C is 112 % of control (dose: 9.0 mg/kg/injection, schedule: Q04DX003 (ip), vehicle: Klucel (hydroxypropylcellulose) (HPC)); 109 % of control (dose: 12.0 mg/kg/injection, schedule: Q01DX001 (ip), vehicle: Klucel (hydroxypropylcellulose) (HPC)); 117 % of control (dose: 18.0 mg/kg/injection, schedule: Q01DX001 (ip), vehicle: Klucel (hydroxypropylcellulose) (HPC)).
Consider `CCOC(=O)C1(NC(=O)N(CCCl)N=O)CCCC1`, for which the T/C runs as follows: (dose: 74.0 mg/kg/injection, schedule: Q01DX001 (ip), vehicle: other) 116 % of control; (dose: 108.0 mg/kg/injection, schedule: Q01DX001 (ip), vehicle: other) 119 % of control; (dose: 110.0 mg/kg/injection, schedule: Q01DX001 (ip), vehicle: other) 118 % of control; (dose: 168.0 mg/kg/injection, schedule: Q01DX001 (ip), vehicle: other) 152 % of control; (dose: 250.0 mg/kg/injection, schedule: Q01DX001 (ip), vehicle: other) 174 % of control and 275 % of control; (dose: 370.0 mg/kg/injection, schedule: Q01DX001 (ip), vehicle: other) 152 % of control. The T/C (dose: 375.0 mg/kg/injection, schedule: Q01DX001 (ip), vehicle: other) was 124 % of control.

The values above are taken from PubChem BioAssay AID252 (DTP/NCI, 2004).
